Experimental findings from BindingDB's records for patent US20240034727 (Stingray Therapeutics, 2024) are described below.

The assay concerns the target T1, Ectonucleotide pyrophosphatase/phosphodiesterase family member 1 (Homo sapiens, UniProt P22413).
T1 sequence (P22413 whole entry): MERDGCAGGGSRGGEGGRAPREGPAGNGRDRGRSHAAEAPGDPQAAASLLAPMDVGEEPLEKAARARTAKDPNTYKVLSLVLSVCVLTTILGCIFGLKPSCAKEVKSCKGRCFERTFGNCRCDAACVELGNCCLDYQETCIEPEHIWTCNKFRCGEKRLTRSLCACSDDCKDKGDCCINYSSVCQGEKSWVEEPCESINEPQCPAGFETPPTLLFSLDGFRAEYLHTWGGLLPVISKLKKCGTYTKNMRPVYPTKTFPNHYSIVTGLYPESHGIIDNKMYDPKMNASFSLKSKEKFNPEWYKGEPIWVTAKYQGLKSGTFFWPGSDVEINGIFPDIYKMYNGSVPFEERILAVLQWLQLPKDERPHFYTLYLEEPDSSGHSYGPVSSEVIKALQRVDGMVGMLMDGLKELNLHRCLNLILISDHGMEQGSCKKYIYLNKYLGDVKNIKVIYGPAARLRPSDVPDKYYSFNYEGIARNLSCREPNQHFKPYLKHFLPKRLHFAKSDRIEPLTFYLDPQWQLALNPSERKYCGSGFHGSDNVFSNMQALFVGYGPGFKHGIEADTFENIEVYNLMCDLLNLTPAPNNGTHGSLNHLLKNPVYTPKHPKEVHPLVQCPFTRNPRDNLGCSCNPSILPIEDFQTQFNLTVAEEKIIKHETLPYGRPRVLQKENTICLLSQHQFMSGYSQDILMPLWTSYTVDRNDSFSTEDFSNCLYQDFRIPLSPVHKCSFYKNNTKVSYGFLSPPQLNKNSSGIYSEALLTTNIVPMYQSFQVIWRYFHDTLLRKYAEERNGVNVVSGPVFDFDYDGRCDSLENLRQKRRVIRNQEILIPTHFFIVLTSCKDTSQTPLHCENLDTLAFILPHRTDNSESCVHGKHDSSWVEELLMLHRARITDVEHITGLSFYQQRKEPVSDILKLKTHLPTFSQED
The assay is described as follows: ENPP1 Inhibition Assay. The protocol: Assay Buffer: 1 mM CaCl2), 0.2 mM ZnCl2, 50 mM Tris, pH 9.0. Substrate: 8 mM Thymidine 5′-monophosphate p-nitrophenol ester sodium salt (Sigma Cat #T4510). Enzyme: 5 ng/L Recombinant Human ENPP-1 Protein (R&D Cat #6136-EN-010) in DMSO in 96-well clear assay plates. An eight point serial dilution of drugs was prepared in 10 in assay buffer with the final assay concentrations starting at 10 μM, 3 μM, 1 μM, 0.3 μM and 0 μM. A dilution of DMSO was included as a control. The assay plate was set up as follows with each well in duplicate: 81 μL assay buffer+10 μL ENPP1 inhibitor or DMSO+5 μL Substrate+4 μL Enzyme. Both the enzyme and substrate was added to opposite sides of the well to ensure that there was no interaction until all wells had both components. The plate was then centrifuged gently for 10 seconds, followed by an incubation at 37 C. for 45 minutes. The reaction was quantified by measuring absorbance at 405 nm using the Envision. IC50 values are determined using GraphPad Prism 5 software. The data were entered as an X-Y plot into the software as percent inhibition for each concentration of the drug. The concentration values of the drug were log transformed and the nonlinear regression was carried out using the sigmoidal dose-response (variable slope) option within the GraphPad software to model the data and calculate IC50 values. […]

Bounds are passed on as bounds.

On to `O=C(CSc1nc(C(=O)O)c[nH]1)NCc1cccc(Cl)c1` [US20240034727, Compound I-21], for which the IC50 was > 10 µM.
The value for `COc1ccc(NC(=O)CSc2nc(C(=O)O)c[nH]2)cc1Cl` [US20240034727, Compound I-35] was < 0.2 µM.

As usually defined, the IC50 is the concentration that gives 50% inhibition. Lower therefore signals inhibition by little substance.
